Measured values: patent US20250177363A1, “SUBSTITUTED IMIDAZOPYRIDINYL COMPOUNDS USEFUL AS INHIBITORS OF TLR9” (Bristol-Myers Squibb Company, priority 2022, published 2025)

Columns and labels:
Type in all cases: cell-based
human TLR7 = biological target: T1, human TLR7 (Homo sapiens, UniProt Q9NYK1); test: TLR7 inhibition reporter assay (HEK-Blue, SEAP); conditions: HEK-Blue cells overexpressing human TLR7, ligand gardiquimod 2.5 μM, 22 hour incubation
T1 construct: host or cells: HEK-Blue cells
T1 sequence (Q9NYK1 27-1049): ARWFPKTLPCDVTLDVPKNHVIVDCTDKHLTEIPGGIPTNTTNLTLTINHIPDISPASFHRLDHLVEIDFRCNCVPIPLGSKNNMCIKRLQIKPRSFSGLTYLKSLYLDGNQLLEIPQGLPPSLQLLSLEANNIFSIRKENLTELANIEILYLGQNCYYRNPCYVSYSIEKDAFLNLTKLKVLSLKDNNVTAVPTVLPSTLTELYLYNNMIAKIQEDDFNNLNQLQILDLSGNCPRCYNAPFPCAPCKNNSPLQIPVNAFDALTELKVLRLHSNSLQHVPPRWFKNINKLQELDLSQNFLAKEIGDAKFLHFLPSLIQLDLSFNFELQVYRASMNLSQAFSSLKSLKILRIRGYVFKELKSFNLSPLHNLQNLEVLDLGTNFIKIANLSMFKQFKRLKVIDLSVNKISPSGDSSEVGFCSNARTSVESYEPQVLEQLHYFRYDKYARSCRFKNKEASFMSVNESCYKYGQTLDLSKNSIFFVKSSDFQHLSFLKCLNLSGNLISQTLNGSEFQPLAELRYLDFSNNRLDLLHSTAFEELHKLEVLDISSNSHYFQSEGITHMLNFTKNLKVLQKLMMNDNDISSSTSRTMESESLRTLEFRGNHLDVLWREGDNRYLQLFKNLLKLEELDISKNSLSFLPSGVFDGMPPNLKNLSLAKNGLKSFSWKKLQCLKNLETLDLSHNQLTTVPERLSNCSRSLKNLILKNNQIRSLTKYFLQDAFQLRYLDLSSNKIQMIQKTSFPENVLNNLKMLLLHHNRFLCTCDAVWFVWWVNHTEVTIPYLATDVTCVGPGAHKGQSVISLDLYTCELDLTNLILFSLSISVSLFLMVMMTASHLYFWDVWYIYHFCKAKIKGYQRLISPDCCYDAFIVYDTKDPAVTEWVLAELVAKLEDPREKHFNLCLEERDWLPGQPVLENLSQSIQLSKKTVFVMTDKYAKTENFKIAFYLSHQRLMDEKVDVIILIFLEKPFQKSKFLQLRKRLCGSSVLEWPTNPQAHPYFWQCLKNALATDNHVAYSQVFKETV
Summary of the method: (§1)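 HEK-Blue cells expressing human TLR7, TLR8 or TLR9 with NF-κB/AP-1-driven SEAP reporter; compounds 0.85 nM–50 μM, pre-treated 60 min. Stimulation: gardiquimod 2.5 μM (TLR7), R848 14.25 μM (TLR8), ODN2006 200 nM (TLR9); SEAP read after 22 h at 37 °C. Percent inhibition normalized between agonist+DMSO and known-inhibitor wells.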

human TLR9 = biological target: T2, human TLR9 (Homo sapiens, UniProt Q9NR96); test: TLR9 inhibition reporter assay (HEK-Blue, SEAP); conditions: HEK-Blue cells overexpressing human TLR9, ligand ODN2006 200 nM, 22 hour incubation
T2 construct: host or cells: HEK-Blue cells
T2 sequence (Q9NR96 26-1032): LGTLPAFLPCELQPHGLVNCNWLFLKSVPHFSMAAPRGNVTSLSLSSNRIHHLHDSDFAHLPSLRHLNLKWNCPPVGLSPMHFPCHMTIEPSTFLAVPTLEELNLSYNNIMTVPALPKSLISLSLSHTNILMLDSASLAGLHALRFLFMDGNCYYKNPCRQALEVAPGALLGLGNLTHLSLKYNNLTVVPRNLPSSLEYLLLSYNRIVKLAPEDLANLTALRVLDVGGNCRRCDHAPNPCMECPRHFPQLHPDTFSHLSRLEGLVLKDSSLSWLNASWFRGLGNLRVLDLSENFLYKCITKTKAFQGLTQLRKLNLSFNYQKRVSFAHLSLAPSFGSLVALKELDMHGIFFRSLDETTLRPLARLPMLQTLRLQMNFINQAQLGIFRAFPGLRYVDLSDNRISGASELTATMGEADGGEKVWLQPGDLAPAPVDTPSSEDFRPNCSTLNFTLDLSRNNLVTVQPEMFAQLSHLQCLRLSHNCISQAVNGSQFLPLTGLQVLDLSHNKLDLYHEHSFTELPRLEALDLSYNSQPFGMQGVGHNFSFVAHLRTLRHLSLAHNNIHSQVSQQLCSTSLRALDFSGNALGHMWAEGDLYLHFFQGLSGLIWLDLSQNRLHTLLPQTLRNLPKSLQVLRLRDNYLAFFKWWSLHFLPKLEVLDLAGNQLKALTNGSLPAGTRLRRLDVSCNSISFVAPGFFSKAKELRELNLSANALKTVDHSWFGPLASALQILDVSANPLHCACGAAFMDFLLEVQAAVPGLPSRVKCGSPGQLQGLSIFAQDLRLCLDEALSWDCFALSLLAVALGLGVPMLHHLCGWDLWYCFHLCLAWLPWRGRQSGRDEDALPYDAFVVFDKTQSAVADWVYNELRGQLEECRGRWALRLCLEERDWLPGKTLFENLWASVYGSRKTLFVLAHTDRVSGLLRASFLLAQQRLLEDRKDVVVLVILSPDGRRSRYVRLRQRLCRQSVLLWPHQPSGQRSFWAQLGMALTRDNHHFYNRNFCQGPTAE
Summary of the method: as §1

human TLR8 = biological target: T3, human TLR8 (Homo sapiens, UniProt Q9NR97); test: TLR8 inhibition reporter assay (HEK-Blue, SEAP); conditions: HEK-Blue cells overexpressing human TLR8, ligand R848 14.25 μM, 22 hour incubation
T3 construct: host or cells: HEK-Blue cells
T3 sequence (Q9NR97 27-1041): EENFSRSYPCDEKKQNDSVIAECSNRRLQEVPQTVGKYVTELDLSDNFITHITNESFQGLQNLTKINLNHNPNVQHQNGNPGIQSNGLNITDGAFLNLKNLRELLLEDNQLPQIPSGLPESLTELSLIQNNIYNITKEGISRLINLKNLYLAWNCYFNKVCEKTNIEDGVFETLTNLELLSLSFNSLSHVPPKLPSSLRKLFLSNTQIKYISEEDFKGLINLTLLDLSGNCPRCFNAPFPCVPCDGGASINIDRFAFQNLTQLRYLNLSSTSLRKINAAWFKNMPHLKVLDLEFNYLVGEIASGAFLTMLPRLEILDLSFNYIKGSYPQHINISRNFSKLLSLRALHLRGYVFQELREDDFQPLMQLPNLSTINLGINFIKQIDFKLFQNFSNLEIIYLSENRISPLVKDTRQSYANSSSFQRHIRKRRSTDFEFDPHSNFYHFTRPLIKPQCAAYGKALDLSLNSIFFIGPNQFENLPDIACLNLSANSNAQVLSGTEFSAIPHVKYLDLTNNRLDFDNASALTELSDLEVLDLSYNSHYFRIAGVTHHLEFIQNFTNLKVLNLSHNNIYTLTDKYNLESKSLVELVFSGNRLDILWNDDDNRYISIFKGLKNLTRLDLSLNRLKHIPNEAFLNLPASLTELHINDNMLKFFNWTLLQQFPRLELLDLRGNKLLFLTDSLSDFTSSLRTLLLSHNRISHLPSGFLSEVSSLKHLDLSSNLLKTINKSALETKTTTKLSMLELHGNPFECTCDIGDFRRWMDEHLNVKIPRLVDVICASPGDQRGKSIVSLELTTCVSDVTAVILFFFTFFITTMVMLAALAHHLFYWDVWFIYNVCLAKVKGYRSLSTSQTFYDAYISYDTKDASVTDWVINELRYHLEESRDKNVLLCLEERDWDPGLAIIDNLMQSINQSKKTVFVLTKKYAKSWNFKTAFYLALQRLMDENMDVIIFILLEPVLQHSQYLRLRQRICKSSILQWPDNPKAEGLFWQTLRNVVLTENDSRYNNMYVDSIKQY
Summary of the method: as §1

Row | Compound | IC50 (human TLR7) [nM] | IC50 (human TLR9) [nM] | IC50 (human TLR8) [nM]
1 | Cn1c(-c2ccc(S(C)(=O)=O)cc2)nc2ccc(-c3ccc(N4CCC5(CC4)CN(CC(C)(C)O)C5)cc3)nc21 [Example 63, 2-methyl-1-(7-(4-(3-methyl-2-(4-(methylsulfonyl)phenyl)-3H-imidazo[4,5-b]pyridin-5-yl)phenyl)-2,7-diazaspiro[3.5]nonan-2-yl)propan-2-ol] | 4200 | 550 | 44000
2 | COc1cc(-c2nc3c(C)cc(C4CCN([C@H]5C[C@@H]6CN(CC7CC7)C[C@@H]6C5)CC4)nc3n2C)cn2ncnc12 [Example 43, 5-(1-((3aR,5s,6aS)-2-(cyclopropylmethyl)octahydrocyclopenta[c]pyrrol-5-yl)piperidin-4-yl)-2-(8-methoxy-[1,2,4]triazolo[1,5-a]pyridin-6-yl)-3,7-dimethyl-3H-imidazo[4,5-b]pyridine] | 250 | 52 | > 50000
3 | Cc1cc(-c2ccc(C3CCN(C)CC3)cc2)nc2c1nc(-c1ccc(S(C)(=O)=O)cc1)n2C1CC1 [Example 9, 3-cyclopropyl-7-methyl-5-(4-(1-methylpiperidin-4-yl)phenyl)-2-(4-(methylsulfonyl)phenyl)-3H-imidazo[4,5-b]pyridine] | 13000 | 1700 | > 50000
4 | COc1ccc(-c2nc3c(C)cc(C4CCN([C@H]5C[C@@H]6CN(CC7CC7)C[C@@H]6C5)CC4)nc3n2C)cc1OC [Example 38, 5-(1-(2-(cyclopropylmethyl)octahydrocyclopenta[c]pyrol-5-yl)piperidin-4-yl)-2-(3,4-dimethoxyphenyl)-3,7-dimethyl-3H-imidazo[4,5-b]pyridine] | 740 | 80 | > 50000
5 | Cc1cc(-c2ccc(CN3CC4(C3)CN(C3CCC3)C4)cc2)nc2c1nc(-c1ccc(S(C)(=O)=O)cc1)n2C1CC1 [Example 1, 5-(4-((6-cyclobutyl-2,6-diazaspiro[3.3]heptan-2-yl)methyl)phenyl)-3-cyclopropyl-7-methyl-2-(4-(methylsulfonyl)phenyl)-3H-imidazo[4,5-b]pyridine] | 8100 | 130 | 27000
6 | COc1ccc(-c2nc3c(C)cc(-c4ccc(N5CCN(C(C)C)CC5)cc4)nc3n2C)cc1OC [Example 10, 2-(3,4-dimethoxyphenyl)-5-(4-(4-isopropylpiperazin-1-yl)phenyl)-3,7-dimethyl-3H-imidazo[4,5-b]pyridine] | 1900 | 750 | 17000
7 | Cc1cc(C2CCN(C3CCN(C4CCC4)CC3)CC2)nc2c1nc(-c1ccc(S(C)(=O)=O)cc1)n2C [Example 24, 5-(1′-cyclobutyl-[1,4′-bipiperidin]-4-yl)-3,7-dimethyl-2-(4-(methylsulfonyl)phenyl)-3H-imidazo[4,5-b]pyridine] | 5400 | 240 | > 50000
8 | Cc1cc(C2CCN(C3CC4CCC(C3)N4C3CCC3)CC2)nc2c1nc(-c1ccc(S(C)(=O)=O)cc1)n2C (stereo not drawn) [Example 33, 5-(1-(8-cyclobutyl-8-azabicyclo[3.2.1]octan-3-yl)piperidin-4-yl)-3,7-dimethyl-2-(4-(methylsulfonyl)phenyl)-3H-imidazo[4,5-b]pyridine] | 1500 | 69 | 19000
9 | Cc1cc(-c2ccc(CN3CCC(N4CCOCC4)CC3)cc2)nc2c1nc(-c1ccc(S(C)(=O)=O)cc1)n2C1CC1 [Example 47, 4-(1-(4-(3-cyclopropyl-7-methyl-2-(4-(methylsulfonyl)phenyl)-3H-imidazo[4,5-b]pyridin-5-yl)benzyl)piperidin-4-yl)morpholine] | 15000 | 290 | > 50000
10 | CC(C)CN1CC2(C1)CN(c1ccc(-c3ccc4nc(-c5ccc(S(C)(=O)=O)cc5)n(C)c4n3)cc1)C2 [Example 66, 5-(4-(6-isobutyl-2,6-diazaspiro[3.3]heptan-2-yl)phenyl)-3-methyl-2-(4-(methylsulfonyl)phenyl)-3H-imidazo[4,5-b]pyridine] | > 50000 | 570 | > 25000
11 | CC(C)CN1CCC(N2CCC(c3cnc4nc(-c5ccc(S(C)(=O)=O)cc5)n(C)c4c3)CC2)CC1 [Example 15, 6-(1′-isobutyl-[1,4′-bipiperidin]-4-yl)-1-methyl-2-(4-(methylsulfonyl)phenyl)-1H-imidazo[4,5-b]pyridine] | 6400 | 160 | > 25000
12 | COc1ccc(-c2nc3c(C)cc(-c4ccc(N5CCC6(CC5)CN(CC(C)C)C6)cc4)nc3n2C)cc1OC [Example 60, 2-(3,4-dimethoxyphenyl)-5-(4-(2-isobutyl-2,7-diazaspiro[3.5]nonan-7-yl)phenyl)-3,7-dimethyl-3H-imidazo[4,5-b]pyridine] | 2500 | 1100 | 3600
